Assay results: patent US20030072781A1, “Calcified tissue facing preparation containing antimicrobial agent” (Advantage Dental Products, Inc., priority 1998, published 2003)

Test system: Strept. mutans
Assay: Strept. mutans culture rinse, colony count
Format: cell-based
Conditions: 30 second submersion, counted after 48 hours
Procedure: Standardized cultures of Strept. mutans are grown in petri dishes and subjected to 30 second submersion in 20 milliliters of various concentration rinses of aqueous chlorohexidine. A 0.04% chlorohexidine solution and water serve as controls. Thereafter, the petri dishes are incubated and colony members counted after 48 hours.

## [H]/N=C(\N/C(=N/[H])NCCCCCCNC(=N)NC(=N)Nc1ccc(Cl)cc1)Nc1ccc(Cl)cc1 [Chlorohexidine, chlorohexidine]
0.04 wt. % aqueous rinse (control)
  Colony Member After Rinse: 26
0.2 wt. % aqueous rinse
  Colony Member After Rinse: 0
0.5 wt. % aqueous rinse
  Colony Member After Rinse: 1
1.0 wt. % aqueous rinse
  Colony Member After Rinse: 1
2.0 wt. % aqueous rinse
  Colony Member After Rinse: 0
5.0 wt. % aqueous rinse
  Colony Member After Rinse: 2
10.0 wt. % aqueous rinse
  Colony Member After Rinse: 0
